From US20260232662A1, “MIR-124 INDUCER, AND PREPARATION METHOD THEREFOR AND USE THEREOF” (NANJING SYNNOCARE PHARMACEUTICAL TECHNOLOGY CO., LTD., priority 2023, published 2026)

Tested on: miR-124
Test: Induction of miR-124 expression in PBMC cells (qPCR)
Type: cell-based
Details: Homo sapiens, 72 h, 0.1 μM compound, human PBMCs stimulated with PMA/ionomycin, miR-191 reference gene, read-out: miR-124 expression, Fold change vs DMSO
Method: This study evaluated the ability of the compound of the present invention to influence miR-124 transcriptional activity in vitro. The experiment analyzed miR-124 expression in human PBMCs (Sailybio) using quantitative PCR (qPCR).
Thawed human PBMCs (1 mL) were added to 19 mL of culture medium (RPMI1640+10% hFBS+1‰ 2-mercaptoethanol) and the PBMCs were incubated in a cell culture incubator for 30 minutes. The PBMCs were collected and the cells (3.0*10^6 cells/well/3 mL) were resuspended in medium containing PMA (10 ng/mL; Invivogen) and ionomycin (200 ng/mL; Invivogen). The cells were incubated in a 6-well plate for 48 hours. Diluted compound was added to the cells to achieve a final concentration of 0.1 μM. After 72 hours, the samples were centrifuged and the cells were collected.
Total miRNA was extracted from the cells using the MiPure Cell/Tissue miRNA Kit (Vazyme) according to the manufacturer's instructions, followed by purification. The purified samples were treated with genomic DNA elimination buffer, and reverse transcription was performed using a GeneAmp PCR System. The resulting cDNA was subjected to quantitative real-time PCR (qPCR) analysis on a QuantStudio™ 7 Flex Real-Time PCR System. Data analysis was performed using the QuantStudio 7 software with default settings to automatically determine Ct values, and the results were exported. In this assay, miR-191 was used as the reference gene, and the DMSO-treated group served as the control. The relative expression of miR-124 was calculated using the following formula: […]

`FC(F)(F)Oc1ccc(Nc2nc3cc(Br)cc(Cl)c3n3ccnc23)cc1` [Compound B23, 7-bromo-9-Chloro-N-(4-(trifluoromethoxy)phenyl)imidazolo [1,2-a]quinoxalin-4-amine] was tested. Which fold induction at 0.1 µM did it give?
The fold induction at 0.1 µM was 25.2.

With `FC(F)(F)Oc1ccc(Nc2nc3cc(Cl)c(Cl)cc3n3ccnc23)cc1` [Compound B24, 7,8-dichloro-N-(4-(trifluoromethoxy)phenyl)imidazolo [1,2-a]quinoxalin-4-amine] as the compound, how does the fold induction at 0.1 µM read?
The fold induction at 0.1 µM was 26.7.

How did the fold induction at 0.1 µM turn out when `Fc1cc2nc(Nc3ccc(OC(F)(F)F)cc3)c3nccn3c2cc1Cl` [Compound B25, 8-chloro-7-fluoro-N-(4-(trifluoromethoxy)phenyl)imidazolo [1,2-a]quinoxalin-4-amine] was run?
The fold induction at 0.1 µM was 23.4.

For `Fc1cc(F)c2c(c1)nc(Nc1ccc(OC(F)(F)F)cc1)c1nccn12` [Compound B30, 7,9-difluoro-N-(4-(trifluoromethoxy)phenyl)imidazolo [1,2-a]quinoxalin-4-amine], which fold induction at 0.1 µM is on record?
Its fold induction at 0.1 µM is 22.5.

How did the fold induction at 0.1 µM turn out when `Fc1cc(Cl)cc2nc(Nc3ccc(OC(F)(F)F)cc3)c3nccn3c12` [Compound B31, 7-chloro-9-fluoro-N-(4-(trifluoromethoxy)phenyl)imidazolo [1,2-a]quinoxalin-4-amine] was run?
Its fold induction at 0.1 µM is 24.4.

`Fc1cc(Br)cc2nc(Nc3ccc(OC(F)(F)F)cc3)c3nccn3c12` [Compound B32, 7-bromo-9-fluoro-N-(4-(trifluoromethoxy)phenyl)imidazolo [1,2-a]quinoxalin-4-amine] was tested. Which fold induction at 0.1 µM did it give?
Its fold induction at 0.1 µM is 19.7.

Which fold induction at 0.1 µM does the source give for `FC(F)(F)c1ccc(Nc2nc3cccc(Cl)c3n3ccnc23)cc1` [Compound B49, 9-chloro-N-(4-(trifluoromethyl)phenyl)imidazolo [1,2-a]quinoxalin-4-amine] here?
The fold induction at 0.1 µM was 32.

`FC(F)(F)Sc1ccc(Nc2nc3cccc(Cl)c3n3ccnc23)cc1` [Compound B50, 9-chloro-N-(4-(trifluoromethylthio)phenyl)imidazolo [1,2-a]quinoxalin-4-amine] was tested. Which fold induction at 0.1 µM did it give?
The fold induction at 0.1 µM was 21.3.

With `FC1(F)Oc2ccc(Nc3nc4cccc(Cl)c4n4ccnc34)cc2O1` [Compound B52, 9-chloro-N-(2,2-difluorobenzo[d] [1,3]dihydroxy-5-yl) imidazolo[1,2-a]quinoxalin-4-amine] as the compound, how does the fold induction at 0.1 µM read?
Its fold induction at 0.1 µM is 30.2.

With `Fc1cc(Nc2nc3cccc(Cl)c3n3ccnc23)ccc1C(F)(F)F` [Compound B53, 9-chloro-N-(3-Fluoro-4-(trifluoromethyl)phenyl)imidazolo [1,2-a]quinoxalin-4-amine] as the compound, how does the fold induction at 0.1 µM read?
The fold induction at 0.1 µM was 36.8.

Which fold induction at 0.1 µM does the source give for `Fc1cc(Nc2nc3cccc(Cl)c3n3ccnc23)ccc1OC(F)(F)F` [Compound B55, 9-chloro-N-(3-Fluoro-4-(trifluoromethoxy)phenyl)imidazolo [1,2-a]quinoxalin-4-amine] here?
Its fold induction at 0.1 µM is 36.3.

Which fold induction at 0.1 µM does the source give for `FC(F)(F)Oc1ccc(Nc2nc3cccc(Cl)c3n3ccnc23)cc1Cl` [Compound B56, 9-chloro-N-(3-chloro-4-(trifluoromethoxy)phenyl)imidazolo [1,2-a]quinoxalin-4-amine] here?
The fold induction at 0.1 µM was 40.7.

`FC(F)Oc1ccc(Nc2nc3cccc(Cl)c3n3ccnc23)cc1` [Compound B59, 9-chloro-N-(4-(difluoromethoxy)phenyl)imidazolo [1,2-a]quinoxalin-4-amine] was tested. Which fold induction at 0.1 µM did it give?
Its fold induction at 0.1 µM is 25.4.

For `FS(F)(F)(F)(F)c1ccc(Nc2nc3cccc(Cl)c3n3ccnc23)cc1` [Compound B60, 9-chloro-N-(4-(thiopentafluoride)phenyl)imidazolo[1,2-a]quinoxalin-4-amine], which fold induction at 0.1 µM is on record?
The fold induction at 0.1 µM was 24.8.

How did the fold induction at 0.1 µM turn out when `CSc1ccc(Nc2nc3cccc(Cl)c3n3ccnc23)cc1` [Compound B61, 9-chloro-N-(4-(methylthio)phenyl) imidazolo [1,2-a]quinoxalin-4-amine] was run?
The fold induction at 0.1 µM was 19.9.

Which fold induction at 0.1 µM does the source give for `FC(F)(F)c1ccc(Nc2nc3cccc(Cl)c3n3ccnc23)nc1` [Compound B67, 9-chloro-N-(5-(trifluoromethyl)pyridin-2-yl) imidazolo [1,2-a]quinoxalin-4-amine] here?
The fold induction at 0.1 µM was 23.4.

`Fc1cccc2nc(Nc3ccc4c(c3)OC(F)(F)O4)c3nccn3c12` [Compound B75, 9-fluoro-N-(2,2-difluorobenzo[d] [1,3]dihydroxy-5-yl) imidazolo[1,2-a] quinoxalin-4-amine] was tested. Which fold induction at 0.1 µM did it give?
The fold induction at 0.1 µM was 29.5.

With `Fc1cc(Nc2nc3cccc(F)c3n3ccnc23)ccc1OC(F)(F)F` [Compound B76, 9-fluoro-N-(3-fluoro-4-(trifluoromethoxy)phenyl) imidazolo[1,2-a] quinoxalin-4-amine] as the compound, how does the fold induction at 0.1 µM read?
Its fold induction at 0.1 µM is 18.5.

Which fold induction at 0.1 µM does the source give for `Fc1cccc2nc(Nc3ccc(OC(F)(F)F)c(Cl)c3)c3nccn3c12` [Compound B77, 9-fluoro-N-(3-chloro-4-(trifluoromethoxy)phenyl) imidazolo[1,2-a]quinoxalin-4-amine] here?
Its fold induction at 0.1 µM is 23.1.

`Fc1cccc2nc(Nc3ccc(C(F)(F)F)cc3)c3nccn3c12` [Compound B78, 9-fluoro-N-(4-(trifluoromethyl)phenyl) imidazolo[1,2-a] quinoxalin-4-amine] was tested. Which fold induction at 0.1 µM did it give?
The fold induction at 0.1 µM was 14.9.

Which fold induction at 0.1 µM does the source give for `Fc1cc(Nc2nc3cccc(F)c3n3ccnc23)ccc1C(F)(F)F` [Compound B79, 9-fluoro-N-(3-fluoro-4-(trifluoromethyl)phenyl) imidazolo[1,2-a] quinoxalin-4-amine] here?
Its fold induction at 0.1 µM is 22.3.

With `Fc1cccc2nc(Nc3ccc(C(F)(F)F)c(Cl)c3)c3nccn3c12` [Compound B80, 9-fluoro-N-(3-chloro-4-(trifluoromethyl)phenyl) imidazolo[1,2-a] quinoxalin-4-amine] as the compound, how does the fold induction at 0.1 µM read?
Its fold induction at 0.1 µM is 17.2.

With `Fc1cc(Cl)cc2nc(Nc3ccc4c(c3)OC(F)(F)O4)c3nccn3c12` [Compound B87, 7-chloro-9-fluoro-N-(2,2-difluorobenzo[d] [1,3]dihydroxy-5-yl)imidazo[1,2-a] quinoxalin-4-amine] as the compound, how does the fold induction at 0.1 µM read?
The fold induction at 0.1 µM was 15.8.

Which fold induction at 0.1 µM does the source give for `Fc1cc(Nc2nc3cc(Cl)cc(F)c3n3ccnc23)ccc1OC(F)(F)F` [Compound B88, 7-chloro-9-fluoro-N-(3-fluoro-4-(trifluoromethoxy)phenyl) imidazolo[1,2-a] quinoxalin-4-amine] here?
The fold induction at 0.1 µM was 20.1.

For `Fc1cc(Cl)cc2nc(Nc3ccc(OC(F)(F)F)c(Cl)c3)c3nccn3c12` [Compound B89, 7-chloro-9-fluoro-N-(3-chloro-4-(trifluoromethoxy)phenyl) imidazolo[1,2-a] quinoxalin-4-amine], which fold induction at 0.1 µM is on record?
The fold induction at 0.1 µM was 22.3.

Which fold induction at 0.1 µM does the source give for `Fc1cc(Cl)cc2nc(Nc3ccc(C(F)(F)F)cc3)c3nccn3c12` [Compound B90, 7-chloro-9-fluoro-N-(4-(trifluoromethyl)phenyl) imidazolo[1,2-a] quinoxalin-4-amine] here?
Its fold induction at 0.1 µM is 24.9.

How did the fold induction at 0.1 µM turn out when `Fc1cc(Nc2nc3cc(Cl)cc(F)c3n3ccnc23)ccc1C(F)(F)F` [Compound B91, 7-chloro-9-fluoro-N-(3-fluoro-4-(trifluoromethyl)phenyl) imidazolo[1,2-a] quinoxalin-4-amine] was run?
Its fold induction at 0.1 µM is 25.7.

How did the fold induction at 0.1 µM turn out when `Fc1cc(Cl)cc2nc(Nc3ccc(C(F)(F)F)c(Cl)c3)c3nccn3c12` [Compound B92, 7-chloro-9-fluoro-N-(3-chloro-4-(trifluoromethyl)phenyl) imidazolo[1,2-a] quinoxalin-4-amine] was run?
The fold induction at 0.1 µM was 27.1.

With `FC1(F)Oc2ccc(Nc3nc4cc(Cl)cc(Cl)c4n4ccnc34)cc2O1` [Compound B93, 7,9-dichloro-N-(2,2-difluorobenzo [d][1,3]dihydroxy-5-yl) imidazolo[1,2-a] quinoxalin-4-amine] as the compound, how does the fold induction at 0.1 µM read?
The fold induction at 0.1 µM was 19.1.

For `Fc1cc(Nc2nc3cc(Cl)cc(Cl)c3n3ccnc23)ccc1OC(F)(F)F` [Compound B94, 7,9-dichloro-N-(3-fluoro-4-(trifluoromethoxy)phenyl) imidazolo[1,2-a] quinoxalin-4-amine], which fold induction at 0.1 µM is on record?
The fold induction at 0.1 µM was 26.4.

With `FC(F)(F)Oc1ccc(Nc2nc3cc(Cl)cc(Cl)c3n3ccnc23)cc1Cl` [Compound B95, 7,9-dichloro-N-(3-chloro-4-(trifluoromethoxy)phenyl) imidazolo[1,2-a] quinoxalin-4-amine] as the compound, how does the fold induction at 0.1 µM read?
Its fold induction at 0.1 µM is 24.8.

Which fold induction at 0.1 µM does the source give for `FC(F)(F)c1ccc(Nc2nc3cc(Cl)cc(Cl)c3n3ccnc23)cc1` [Compound B96, 7,9-dichloro-N-(4-(trifluoromethyl)phenyl) imidazolo[1,2-a] quinoxalin-4-amine] here?
The fold induction at 0.1 µM was 23.2.

`FC(F)(F)c1ccc(Nc2nc3cc(Cl)cc(Cl)c3n3ccnc23)cc1Cl` [Compound B98, 7,9-dichloro-N-(3-chloro-4-(trifluoromethyl)phenyl) imidazolo[1,2-a] quinoxalin-4-amine] was tested. Which fold induction at 0.1 µM did it give?
Its fold induction at 0.1 µM is 22.9.

How did the fold induction at 0.1 µM turn out when `FC(F)(F)Sc1ccc(Nc2nc3cc(Cl)cc(Cl)c3n3ccnc23)cc1` [Compound B99, 7,9-dichloro-N-(4-(trifluoromethylthio)phenyl) imidazolo[1,2-a] quinoxalin-4-amine] was run?
Its fold induction at 0.1 µM is 17.6.

With `FC1(F)Oc2ccc(Nc3nc4ccc(Cl)cc4n4ccnc34)cc2O1` [Compound B100, 8-chloro-N-(2,2-difluorobenzo [d][1,3]dihydroxy-5-yl) imidazolo[1,2-a] quinoxalin-4-amine] as the compound, how does the fold induction at 0.1 µM read?
Its fold induction at 0.1 µM is 19.6.

`Fc1cc(Nc2nc3ccc(Cl)cc3n3ccnc23)ccc1OC(F)(F)F` [Compound B101, 8-chloro-N-(3-fluoro-4-(trifluoromethoxy)phenyl) imidazolo[1,2-a] quinoxalin-4-amine] was tested. Which fold induction at 0.1 µM did it give?
Its fold induction at 0.1 µM is 24.7.
